Reference: ChEMBL document CHEMBL3616429, “Chemical structure and biological activity of a quorum sensing pheromone from Bacillus subtilis subsp. natto” (2015)
Activity calls are given as the source filed them. The rule behind the calls is not given here. *1 amine or outer side, *2 acyl side, *3 side chain or, on linkers, in order; H or OH if unused. Where a SMILES comes first, the peptide text is derived from it. [ ]: non-standard residue; d: D form. X1 = CC(C)=CCC/C(C)=C/CC/C(C)=C/C[C@]12C[C@@H](C(=O)[*:2])N([*:1])[C@@H]1Nc1ccccc12

How the values were obtained:
Assay type in all cases: functional
[1] = test system: Bacillus subtilis; experiment: Induction of poly-gamma-glutamic acid production in Bacillus subtilis subsp. natto at 1000 nM incubated for 72 hrs at 37 degC by ultra-filtration method
[2] = test system: Bacillus subtilis; experiment: Induction of poly-gamma-glutamic acid production in Bacillus subtilis subsp. natto at >1 nM incubated for 72 hrs at 37 degC by ultra-filtration method
[3] = test system: Bacillus subtilis; experiment: Induction of poly-gamma-glutamic acid production in Bacillus subtilis subsp. natto at 10 nM incubated for 72 hrs at 37 degC by ultra-filtration method
[4] = test system: Bacillus subtilis; experiment: Induction of poly-gamma-glutamic acid production in Bacillus subtilis subsp. natto at 100 nM incubated for 72 hrs at 37 degC by ultra-filtration method

Compound | Activity [1] | Activity [2] | Activity [3] | fold change (FC) [4]
H-KWPPIE-OH | inactive |  |  | 
CC[C@H](C)[C@H](NC(=O)[C@@H]1CCCN1C(=O)[C@@H]1CCCN1C(=O)[C@@H]1C[C@]2(C/C=C(\C)CC/C=C(\C)CCC=C(C)C)c3ccccc3N[C@H]2N1C(=O)[C@@H](N)CCCCN)C(=O)N[C@@H](CCC(=O)O)C(=O)O (H-K[X1]PPIE-OH) |  | Active | Active | 2
